Entries after “also recorded” stand apart in the source; their conditions may differ. Like-named read-outs stand apart in the source and are kept apart here.
Key:
[1] = test system: PC-3 (human prostate carcinoma); experiment: Prostate carcinoma model PC-3 in SCID mice
Source text: • Species and strain: Mouse (Mus musculus); female SCID (MDA231 and OVCAR3), male SCID (PC-3, HCT116); male CD57 B16 mice (BL16-BL6) • Age: 6-8 weeks old. • Supplier: Charles River Laboratories, Inc., St-Constant, Quebec, Canada. • Acclimation: Mice were acclimated to laboratory conditions for approximately 1 week prior to tumor cell inoculation. • Identification: Mice were identified by ear punch combination. • Housing: Mice were housed in groups of 3-5 in a designated animal facility with a temperature of 22° C., a relative humidity of 40-50%, and a 12 hr light/dark cycle.
PC-3 (human prostate carcinoma). These cells were originally received from the ATCC. Early passage cells (tested free of mycoplasma) were grown to 60% confluence in DMEM medium supplemented with 10% fetal bovine serum, and antibiotics. Cell harvesting was performed using trypsin-EDTA solution.
Exponentially growing cells were harvested using trypsin-EDTA solution. […] Cell viability was confirmed by trypan blue staining. […] One to 2 millions cells suspended in 0.1 mL phosphate buffer solution was implanted into the mammary fat pad (MCF7) or subcutaneously into the axillary region of the right flank of recipient SCID mice. All animals were inoculated at the same site.
Mice were subjected to general examination on daily basis. […] Control groups received the vehicle alone. Chemotherapy drugs were also given by intraperitoneal route according to the schedule described below.
Primary tumor growth was monitored every second to fourth day using calipers. Relative tumor volume (cm^3) was determined by the formula:
Body weights were monitored every third to fifth day. Animals experiencing signs of discomfort were sacrificed immediately (in some cases they were replaced by spared mice). […] Mice were sacrificed by cervical dislocation and immediately subjected to full autopsy.

[2] = test system: human pancreatic tumor cells; experiment: Cell proliferation, [3H]thymidine incorporation, human pancreatic tumor cells; assay type: cell-based; conditions: 6.5 μM, 18 h
[3] = test system: human metastatic prostate cancer PC-3M cells; experiment: Orthotopic PC-3M prostate cancer model in SCID mice; assay type: in vivo
Source text: PC-3 & PC-3M (human prostate carcinoma). The PC-3 human prostate cancer cell line was originally obtained from the American Type Culture Collection (Rockville, Md.). The PC-3M cell line was kindly provided by Dr. Issac (MD Anderson Cancer Center). This cell variant was derived from a liver metastasis produced by the parental PC-3 cells growing in the spleen of a nude mouse [Pettaway C A, Pathak S, Greene G, et al. Selection of highly metastatic variants of different human prostate carcinomas utilizing orthotopic implantation in nude mice.
Male SCID mice were housed in laminar flow under specific pathogen-free conditions and used at 8-9 weeks of age. Animals were maintained in the LDI facilities approved by the Laboratory Animal Care in accordance with current Canadian regulations and standards for the use of animals for research.
Mice were anesthesized with isofluorane given by inhalation and placed in a supine position. […] A low midline incision was made and the prostate was exposed. Fifty microliters of HBSS containing 1×10^6 cells was injected into a lateral lobe of the prostate. The wound was closed with surgical metal clips in two layers, the muscle layer first and then the skin layer using stainless steel clips (autoclips: 9 mm; Clay Adams Inc., Parsippany, N.J.). […] Control groups received the vehicle alone. Taxol™ was given either ip or iv as indicated.
Primary tumors in the prostate were excised, measured, and weighed. When applicable, immunohistochemistry and H&E staining were conducted on one part of the tumor, fixed in formalin and embedded in paraffin or OCT compound (Miles Inc., Elkhart, Ind.); the later was rapidly frozen in liquid nitrogen, and stored at −70° C. Macroscopically enlarged regional lymph nodes were harvested and the presence of metastatic disease was confirmed by histology.
The in vivo data was analyzed using the Mann-Whitney U test.

[4] = Pharmacokinetic evaluation of QC-199 in mouse plasma and brain, IP or oral; assay type: in vivo; conditions: for half-life: from Lambda z; for AUC: read-out: AUCall (0-12); for Cmax: mouse, male CD-1 mice
Experimental: Regular male CD1 mice, 6 weeks old, were obtained from Charles River Laboratories, St. Zotique, PQ, Canada. The mice weighed 22-28 g. The experiments were approved by the Animal Care Committee, McGill University, Montreal, Quebec. The animals were housed in individual cages and were fed standard rodent chow and water ad libitum. Mice weights were measured with a digital balance accurate to 0.05 g and then received QC-199 at the indicated doses either orally, or via i.p. injections or following i.v. slow infusion. In the case of i.v. injection or i.v. infusion, mice were anesthetized using isoflurane-based system (DISPOMED, MODUFLEX COMPACT NRB, 3975-0800-000). For the infusion, a mini pump (NE-1800, New Era Pump Systems, Inc.) was used to infuse the compound via the tail vein during a 2 h period. In one study, blood and brain tissue samples were collected at various time points after administration of QC-199 using EDTA tubing (Das Original S-Monovette EDTA KE/1.2 ml lot.9094102 and Needle for S-Monovette 22G lot. 8073401) via cardiac puncture and immediately stored at 4° C. Serum was collected after the samples were centrifuged 2200×, 4° C. for 20 minutes and stored at −80° C. until analysis. For the brain tissue collection, skin of mice was removed and brain was carefully dissected out from the skull, transferred into a Petri dish, briefly washed with ice-cold phosphate-buffered saline (PBS), and immediately stored at −80° C. until further analysis.
The assay of QC-199 in mouse plasma and brain samples was carried out using qualified LC/MS/MS assay methods.

[5] = test system: SKMEL-V+ cells; experiment: Melanoma efficacy study of QC-199, SKMEL-V+ cells s.c. in Scid mice; assay type: in vivo, human; conditions: for reduction of tumor volume vs vehicle: 2 cycles
Experimental: BD PharMingen, San Diego, Calif.). Cryostat sections were used for CD31 staining. […] Sections were rehydrated in PBS and then blocked with 5% normal goat serum for 1 h. The sections were then incubated overnight at 4° C. with CD31 antibody diluted 1:25 in 3% BSA-PBS. […] Sections were counterstained with Harris' hematoxylin and mounted. Slides were analyzed by conventional light microscopy and photographed using color slides (Eastman Kodak, Rochester, N.Y.). Balb/c Scid mice, 6 week-old, were obtained from Charles River Laboratories, St. Zotique, PQ, Canada. The mice weighed 18-22 g. The experiments were approved by the Animal Care Committee, McGill University, Montreal. The animals were housed in individual cages (4 per cage) and were fed standard rodent chow and water ad libitum. […] When the tumors become palpable (size of a rice), mice weights were measured with a digital balance accurate to 0.05 g. […] For the infusion, mice were anesthetized using isoflurane-based system ([…] COMPACT NRB, 3975-0800-000). For the infusion, a mini pump (NE-1800, New Era Pump Systems, Inc.) was used to infuse the compound via the tail vein during a 2 h period. […] At experiment termination, mice were anesthetized with isoflurane and sacrificed by cervical dislocation. Tumors were dissected and tumor weights were measured using a digital balance.

[6] = QC-56 30 mg/kg intraperitoneally daily for 12 days, Taxol 10 mg/kg i.p. 3 cycles
[7] = QC-56 30 mg/kg intravenously daily for 12 days, Taxol 10 mg/kg i.p. 3 cycles

Brc1ccc(CCC2(Cn3ccnc3)OCCO2)cc1.Cl [QC-56, 1-((2-(2-(4-Bromophenyl)ethyl)-1,3-dioxolan-2-yl)methyl)-1H-imidazole hydrochloride]
Body Weights (g) d8 (mean + SE) ([1]; PC-3 mice, treatment day 8): 22.30 ± 7.88 g | Body Weights (g) d42 (mean + SE) ([1]; PC-3 mice, treatment day 42): 18.10 ± 7.38 g | inhibition of tumor growth compared to vehicle alone ([1]; QC-56 60 mg/kg/ip, Taxol 10 mg/kg): approximately 25% | effect of hHO-1 transfection on 3H-thymidine incorporation ([2]; hHO-1-transfected human pancreatic tumor cells): significantly attenuated | 3H-thymidine incorporation vs untreated cells ([2]; non-transfected human pancreatic tumor cells, hydrochloride): significantly attenuated; also recorded: marked reduction | inhibition of tumor growth [3, 6]: 34% | reduction in microscopic lymph node metastases [3, 6]: 59% | inhibition of tumor growth [3, 7]: 58% | reduction in microscopic lymph node metastases [3, 7]: 76% | reduction in microscopic lymph node metastases ([3]; QC-56 40 mg/kg daily for 24 days, Taxol 10 mg/kg, 4 cycles): 48% | inhibition of tumor growth compared to untreated mice ([3]; QC-56 40 mg/kg daily for 24 days, Taxol 10 mg/kg, 4 cycles, 3 administrations per cycle): 35%

Brc1ccc(CCCCn2ccnc2)cc1.Cl [QC-199, 1-[4-(4-bromophenyl)butyl]-1H-imidazole hydrochloride]
% Extrapolated AUC ([4]; brain, IP 60 mg/kg): 13% | AUC(0-inf) ([4]; brain, IP 60 mg/kg): 427 µg·h/g | AUCall (0-12) ([4]; brain, IP 60 mg/kg): 370 µg·h/g | % Extrapolated AUC ([4]; brain, Oral 60 mg/kg): 37% | AUC(0-inf) ([4]; brain, Oral 60 mg/kg): 361 µg·h/g | AUCall (0-12) ([4]; brain, Oral 60 mg/kg): 227 µg·h/g | oral bioavailability ([4]; from oral-to-IP AUC ratios in brain and plasma): moderately high oral bioavailability | concentration at 5 min ([4]; male, CD-1, mouse, brain, 60 mg/kg, IP or oral administration, above the upper calibration range, read-out: brain tissue concentration at 5 min post-dose): > 10000 ng/g | half-life ([4]; male, CD-1, mouse, in vivo, ip, 60 mg/kg, brain, IP 60 mg/kg): 258 min | half-life ([4]; male, CD-1, mouse, in vivo, ip, 60 mg/kg, plasma, IP 60 mg/kg): 288 min | half-life ([4]; male, CD-1, mouse, in vivo, po, 60 mg/kg, brain, Oral 60 mg/kg): 516 min | half-life ([4]; male, CD-1, mouse, in vivo, po, 60 mg/kg, plasma, Oral 60 mg/kg): 426 min | Tmax ([4]; male, CD-1, mouse, in vivo, brain, IP 60 mg/kg): 10 min | Tmax ([4]; male, CD-1, mouse, in vivo, brain, Oral 60 mg/kg): 10 min | AUC(0-inf) ([4]; male, CD-1, mouse, in vivo, plasma, IP 60 mg/kg, read-out: AUC0-inf): 85000 ng·h/mL | AUC ([4]; male, CD-1, mouse, in vivo, plasma, IP 60 mg/kg): 72000 ng·h/mL | AUC(0-inf) ([4]; male, CD-1, mouse, in vivo, plasma, Oral 60 mg/kg, read-out: AUC0-inf): 67000 ng·h/mL | AUC ([4]; male, CD-1, mouse, in vivo, plasma, Oral 60 mg/kg): 47000 ng·h/mL | Cmax ([4]; in vivo, brain, IP 60 mg/kg): 79000 ± 2200 ng/g | Cmax ([4]; in vivo, brain, Oral 60 mg/kg): 39000 ± 2700 ng/g | Cmax ([4]; in vivo, plasma, IP 60 mg/kg): 20000 ± 1200 ng/mL | Cmax ([4]; in vivo, plasma, Oral 60 mg/kg): 9100 ± 800 ng/mL | AUC_%Extrap_obs ([4]; plasma, IP 60 mg/kg): 16% | AUC_%Extrap_obs ([4]; plasma, Oral 60 mg/kg): 30% | reduction of tumor volume vs vehicle ([5]; 30 mg/kg i.v. infusion, d1, 3, 5 per cycle): 30% | reduction of tumor volume vs vehicle ([5]; 60 mg/kg i.v. infusion, d1, 3, 5 per cycle, p less than 0.05): 52% | reduction of tumor volume vs vehicle ([5]; 200 mg/kg i.v. infusion, d1, 5 per cycle, p less than 0.01): 69% | reduction of tumor volume vs vehicle ([5]; 1000 mg/kg i.v. infusion, d1, 5 per cycle, p less than 0.01): 78% | vascularization of dissected tumors (H&E staining) ([5]; QC-199 30-1000 mg/kg): dose dependent reduction in vascularization

Source: patent US20140155445A1, “Compounds and Methods for Treating Cancer and Diseases of the Central Nervous System” (Osta Biotechnologies Inc., priority 2007, published 2014)
